According to US5028605A, “8-alkylaminoimidazo(1,2-a)pyrazines and derivatives, their preparation and their application in therapy” (l'Universite de Montpellier I, priority 1986, dated 1991):
pEC50: −log10 of the molar value.

Legend:
[1] = tested on: duodenum; experiment: Antispasmodic activity: barium chloride-induced contraction of isolated rat duodenum (Magnus); conditions: for ED50 Theo/ED50 product (antispasmodic activity): barium chloride 10^-4 M, isolated rat duodenum, 37° C., mean of 5 to 6 determinations
Experimental: Fragments of duodenum are removed from male rats (200 g), fasted for 24 hours and killed by decapitation, and are mounted, after being washed, in a thermostatted (37° C.) isolated organ cell and maintained in survival in Tyrode's solution according to Magnus's classical technique.
The spasmogenic agent used is barium chloride (10^-4 M).
In the first instance, the spasmogenic agent is added to the nutrient bath and, as soon as the contraction of the organ reaches its maximum, the relaxant agent is added to the medium. Working in relation to a fixed concentration of barium chloride with variable concentrations of relaxant, the ED50 of the latter, capable of reducing the induced contraction by 50%, is determined.
The results expressed in Table IV below show the ratio ED50 Theo/ED50 product, established on the basis of the mean of the results of 5 to 6 determinations per product (ED50theophylline=8×10^-4 M).

[2] = tested on: uterine horns; experiment: Uterine relaxant activity: spontaneous contractions of isolated rat uterine horn fragments; conditions: for ED50 Theo/ED50 product (uterine relaxant activity): isolated rat uterine horn, spontaneous contractions, mean of 5 to 10 determinations
Experimental: Female rats (150-180 g) are killed by decapitation 24 hours after the intraperitoneal administration of stilbestrol (0.1 mg/kg). The uterine horns are removed and fragments mounted in a thermostatted (37° C.) isolated organ cell and maintained in survival in oxygenated De Jalon's solution of composition (mM): NaCl (153.8); KCl (5.6); CaCl2 (2.16); NaHCO3 (1.8); dextrose (5.5). One end of the uterine fragment is maintained fixed, while the other is attached to a recording myograph under a tension of the order of 0.5 g. The spontaneous uterine contractions are recorded on a kymograph. The organ is left at rest for 30 minutes and washed three times. The test products are introduced directly into the bath after being dissolved in De Jalon's solution, and the activity measured (ED50) corresponds to the dose capable of reducing the magnitude of the spontaneous contractions by 50%.
The results expressed in Table V below show the ratio ED50 Theo/ED50 product, established on the basis of the mean of the results of 5 to 10 determinations per product. (ED50 theophylline=0.9×10^-3 M)

[3] = tested on: histamine-induced bronchoconstriction, guinea pigs; experiment: Antibronchospastic activity: histamine-induced bronchospasm in anesthetized guinea pigs; assay type: in vivo, guinea pig; conditions: for ED50 Theo/ED50 product (bronchospasm induced in guinea pigs): intravenous, 30 seconds before histamine, mean of 5 to 8 determinations
Experimental: Guinea pigs of both sexes weighing between 400 and 600 g are anesthetized with ethyl carbamate ([…] i.p.). After tracheotomy, the animal is placed under artificial respiration at a constant flowrate (Palmer pump 1 m1/100 g×60/min). A take-off at the tracheal cannula enables the volume of air to be gaged at each inhalation by means of a Marey drum. Bronchospasm is induced by intraveneous (jugular) administration of histamine. For each animal, the dose of histamine (8 to 12 μg/kg) inducing an increase in the recording trace equal to double its initial value is determined. The dose adopted should provide three identical responses at intervals of 10 minutes.
The test product is administered intraveneously and then, 30 seconds later, histamine is administered again.

[4] = tested on: guinea pig trachea; experiment: Isolated guinea pig trachea: anti-contractional activity against carbachol; conditions: for EC50 Theo/EC50 product (anti-contractional activity, trachea): carbachol 10^-4 M, isolated guinea pig trachea, mean of 5 to 6 determinations
Experimental: Guinea pigs of both sexes weighing on average 400 to 600 g are sacrificed, and the tracheas are removed and placed at 37° C. in an oxygenated environment (95% O2 -5% CO2) in Krebs fluid of the following composition (mM): NaCl (116), MgSO4 (1.2), KCl (3.7), CaCl2 (2.6), KH2 PO4 (2.2), NaHCO3 (24.9), glucose (10). The tracheal segments are then mounted horizontally between two hooks, one of which is fixed to the base of the isolated organ cell and the other is attached to a myograph under a tension of 0.5 g. The organ is left at rest for one hour and is subjected to four washes. The contraction-inducing reagent (carbachol) is added at a concentration (10^-4 M) greater than the concentration giving the maximum effect. After stabilization of the contractional effect, gradually increasing accumulative amounts of the test products are added to the cell. The bronchodilatory effect is measured as the percentage inhibition of the maximal contraction and EC50 represents the concentration inhibiting this concentration by 50%.

[5] = tested on: left atrium; experiment: Cardiac activity: inotropic function, isolated electrically stimulated left atrium; design: species or system guinea pig; conditions: concentration producing increase in magnitude of 0.5 g
Source text: (§1) Guinea pigs of both sexes weighing between 300 and 500 g are killed by decapitation. The hearts are rapidly removed and placed in an oxygenated environment (95% O2 -5% CO2) in Chenoweth-Koelle's solution of the following composition (mM): NaCl (120), KCl (5.63), CaCl2 (2.0), dextrose (9.7), MgCl2 (2.0), NaHCO3 (26.0). The right and left atria are then separated from the heart and mounted in an isolated organ cell. The right atrium beats spontaneously and the left atrium is electrically stimulated. The organs under a tension of 1 g are left at rest for two hours and washed every fifteen minutes.
(§2) The products are added directly to the nutrient bath. The right atrium is used for measuring the modifications of rate (chronotropic function) whereas the left atrium indicates the modifications brought about in the contractile force (inotropic function).
For the inotropic function, the concentration capable of producing an increase in magnitude of 0.5 g with respect to the basic contraction is measured.

[6] = tested on: right atrium; experiment: Cardiac activity: chronotropic function, isolated spontaneously beating right atrium; design: species or system guinea pig; conditions: concentration producing 20% increase in rate
Source text: as §1, §2
For the chronotropic function, the concentration capable of producing a 20% increase in the basic value of the rate is determined.

[7] = tested on: mice; experiment: Motor activity: spontaneous activity in mice (neurosedative effect); assay type: in vivo, mouse; conditions: male mice, 50 minutes
Experimental: The measurement of the neurosedative effect is based on the test of activity measurements in mice. […] Five minutes after the administration, the animals are placed in activity-measuring cages, which record their movements digitally by means of the interruption of beams of light. The results are recorded in Table IX and expressed as the percentage variation (increase or decrease ) in activity compared with the controls during a period of 50 minutes following the administration.

Structure (SMILES)	EC50 Theo/EC50 product (anti-contractional activity, trachea) [4]	ED50 Theo/ED50 product (antispasmodic activity) [1]	ED50 Theo/ED50 product (uterine relaxant activity) [2]	ED50 Theo/ED50 product (bronchospasm induced in guinea pigs) [3]	ED Theo/ED Product, inotropic function [5]	ED Theo/ED Product, chronotropic function [6]	spontaneous activity - % variation compared with the controls, decrease (.dwnarw.) ([7]; 55 μmol/kg intraperitoneally) [%]	spontaneous activity - % variation compared with the controls, decrease (.dwnarw.) ([7]; 166 μmol/kg intraperitoneally) [%]	spontaneous activity - % variation compared with the controls, increase (.uparw.) ([7]; 55 μmol/kg intraperitoneally) [%]	pEC50 ([1]; Rattus norvegicus, reduces barium chloride-induced contraction by 50%, read-out: ED50 theophylline (antispasmodic))	pEC50 ([2]; Rattus norvegicus, reduces magnitude of spontaneous contractions by 50%, read-out: ED50 theophylline (uterine relaxant))	ED50 ([3]; Cavia porcellus, iv, read-out: ED50 Theo (bronchospasm induced in guinea pigs)) [µmol/kg]	pEC50 ([4]; Cavia porcellus, 50% inhibition of maximal carbachol contraction, read-out: EC50 Theo (anti-contractional activity, trachea))	spontaneous activity - % variation compared with the controls, increase (.uparw.) ([7]; 166 μmol/kg intraperitoneally) [%]
CNc1nccn2c(Br)cnc12 [Compound 6, 3-Bromo-8-methylaminoimidazo[1,2-a]pyrazine]	12.5	32	9	2	5	6	25	57						
Nc1nc(Br)cn2ccnc12 [Compound 8, 8-amino-6-bromoimidazo[1,2-a]pyrazine]	11.3	32	3	4	10	2	53	83						
CCOC(=O)c1cn2ccnc(N)c2n1 [Compound 17, ethyl 8-aminoimidazo[1,2-a]pyrazine-2-carboxylate]		13	2.6	1.1	< 1	< 1		17	28					
Cn1c(=O)c2[nH]cnc2n(C)c1=O [theophylline, reference compound]									130	3.10	3.05	43	3.00	170

More lines, main results first:

EC50 Theo/EC50 product (anti-contractional activity, trachea) [4]	Structure (SMILES)	ED50 Theo/ED50 product (antispasmodic activity) [1]	ED50 Theo/ED50 product (uterine relaxant activity) [2]	ED50 Theo/ED50 product (bronchospasm induced in guinea pigs) [3]	ED Theo/ED Product, inotropic function [5]	ED Theo/ED Product, chronotropic function [6]	spontaneous activity - % variation compared with the controls, decrease (.dwnarw.) ([7]; 55 μmol/kg intraperitoneally) [%]	spontaneous activity - % variation compared with the controls, decrease (.dwnarw.) ([7]; 166 μmol/kg intraperitoneally) [%]	spontaneous activity - % variation compared with the controls, increase (.uparw.) ([7]; 55 μmol/kg intraperitoneally) [%]	pEC50 ([1]; Rattus norvegicus, reduces barium chloride-induced contraction by 50%, read-out: ED50 theophylline (antispasmodic))	pEC50 ([2]; Rattus norvegicus, reduces magnitude of spontaneous contractions by 50%, read-out: ED50 theophylline (uterine relaxant))	ED50 ([3]; Cavia porcellus, iv, read-out: ED50 Theo (bronchospasm induced in guinea pigs)) [µmol/kg]	pEC50 ([4]; Cavia porcellus, 50% inhibition of maximal carbachol contraction, read-out: EC50 Theo (anti-contractional activity, trachea))	spontaneous activity - % variation compared with the controls, increase (.uparw.) ([7]; 166 μmol/kg intraperitoneally) [%]
8.3	CNc1nc(Br)cn2ccnc12 [Compound 9, 6-bromo-8-methylaminoimidazo[1,2-a]pyrazine]	20	5.6	5.4	50	25	74	83						
5	CCNc1nc(Br)cn2ccnc12 [Compound 10, 6-bromo-8-ethylaminoimidazo[1,2-a]pyrazine]	40	7.2	2	4	15	13	73						
